{
  "source": "patent US20120141435A1",
  "about": "“USE OF OLIVE LEAF EXTRACTS IN A PHARMACEUTICAL COMPOSITION FOR INDUCING ANGIOGENESIS AND VASCULOGENESIS” (SANIDAD Y RESIDENCIAS 21, S.A., priority 2009, published 2012)",
  "system": "6 mm excisional wounds on the back of db/db mice",
  "assay": "Excisional wound healing in db/db mice (digital planimetry)",
  "type": "in vivo, mouse",
  "settings": "topical on days 0, 2, 4, 6, 8, 10e-2, 10e-5, 10e-7 m oleuropein, treated (right) and untreated (left) wound, vs PBS",
  "protocol": "Female db/db mice (BKS.Cg-m+/+Lepr^db) aged 10 to 12 weeks were used. They were obtained through Charles River Laboratories (Spain), the average weight of the animals upon reception was 35.64 g. Throughout the entire study, the animals were kept in animal houses particularly designed for allowing control of the animals' environment, such as relative humidity (30-70%), temperature (22±2° C.), air pressure, number of renewals and light period ( 12/12 hours of light/darkness). Access to water was “ad libitum” and the diet was a standard dry pellet diet for rats supplied by PanLab (Barcelona, Spain). After the acclimatization period, the mice were randomly distributed into the different study groups. […]\nOn day 0 of the experiment, two 6 mm excisional wounds were made on the back of every mouse under aseptic conditions and using surgical instruments. […] The wound healing process was tracked and evaluated throughout the experiment (see FIG. 3). […]\nIn order to track the wound healing, a digital planimetry method was used whereby the area of every wound was quantified. The inter-group differences have been determined by means of a two-way ANOVA statistical analysis followed by a Bonferroni post-hoc analysis. […]",
  "data": [
    {"substance": "VEGF", "values": [
      {"measurement": "wound healing (wound area)", "value": "healing effect"}
    ]}
  ]
}
